The target in data set [1] is T1, acetylcholinesterase (Gallus gallus, UniProt P36196).
T1 construct: tested for anticholinesterase acitivity in chicken brain homogenate and electric eel extract; from tissue; host or cells: chicken brain homogenate
T1 sequence (P36196 20-767): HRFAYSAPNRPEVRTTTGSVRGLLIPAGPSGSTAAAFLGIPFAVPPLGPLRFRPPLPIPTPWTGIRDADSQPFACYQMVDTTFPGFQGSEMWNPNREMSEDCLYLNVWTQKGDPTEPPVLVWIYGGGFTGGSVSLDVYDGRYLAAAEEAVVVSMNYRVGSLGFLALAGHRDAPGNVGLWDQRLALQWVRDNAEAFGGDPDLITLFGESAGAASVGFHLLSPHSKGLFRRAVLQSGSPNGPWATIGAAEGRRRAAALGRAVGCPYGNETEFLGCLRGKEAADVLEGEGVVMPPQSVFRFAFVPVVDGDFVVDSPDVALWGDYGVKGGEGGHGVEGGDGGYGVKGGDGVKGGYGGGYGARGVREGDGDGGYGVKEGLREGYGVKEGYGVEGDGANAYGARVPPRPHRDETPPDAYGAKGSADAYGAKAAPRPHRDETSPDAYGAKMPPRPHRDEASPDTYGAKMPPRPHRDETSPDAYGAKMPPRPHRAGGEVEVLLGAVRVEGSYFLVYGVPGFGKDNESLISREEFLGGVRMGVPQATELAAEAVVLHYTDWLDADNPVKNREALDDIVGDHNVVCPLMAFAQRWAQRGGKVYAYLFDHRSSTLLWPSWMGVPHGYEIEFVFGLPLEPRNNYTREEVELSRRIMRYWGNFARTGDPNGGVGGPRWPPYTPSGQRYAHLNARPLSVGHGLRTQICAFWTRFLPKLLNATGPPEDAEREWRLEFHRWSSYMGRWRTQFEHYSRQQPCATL
Put plainly: Acetylcholinesterase activity inhibition assay, chicken brain homogenate. It is filed as biochemical. Conditions: at 10⁻⁵ M. The procedure:
(§1) The AZT prodrug was evaluated for anticholinesterase activity at the Laboratory of Neurotoxicology and Pharmacology at Duke University using a standard well established acetylcholinesterase activity inhibition assay. Elleman et. al.; Biochemical Pharmacology; 7:88 (1962) The prodrug was tested for anticholinesterase acitivity in chicken brain homogenate and electric eel extract.

Data set [2] is described as follows: Cytotoxicity in uninfected CEM cells (tetrazolium/formazan viability readout). Type of data set: cell-based. To be noted: human, 6 days, read-out: TC₅₀ (concentration that resulted in a 50% reduction of cell viability in uninfected cells). On the procedure: (§2) The antiviral activity of the AZT prodrug was evaluated in the Retrovirus Research Laboratory at Southern Research Institute. The AZT prodrug (Structure 5) was tested against HIV in CEM cells in a standardized assay system. In this assay the CEM cells were grown in microtitre plates and incubated for 6 day with or without a HIV. The cells were incubated with prodrug or AZT at varying concentrations. After 6 days the percentage of viable cells was measured by employing a standardized assay based upon the conversion of a tetrazolium salt to a formazan chromaphore by viable cells. (T.Mossman; J.Immunol.Methods 65:55 (1983)) The production of the chromaphore was measured spectrophotometrically with a Molecular Devices Vmax plate reader at 570 nm. From the optical density data a computer program calculated the per cent reduction in viral cytopathic effect (CPE), the prodrugs cytotoxic effect, and IC₅₀ values.
The IC₅₀ value; defined as that concentration of drug inhibited the HIV induced CPE 50% was 24 nanamolar for the AZT prodrug. […] When the prodrug was added to the cell cultures 8 hours prior to infecting with HIV the IC₅₀ for the prodrug was 5 nanamolar. The IC9₉₀ for the prodrug was 10 nanamolar. The IC₅₀ for AZT under the same conditions was also 5 nanamolar. The IC₉₀ for AZT was 10 nanamolar. […]

The subject of the next data set is HIV. Put plainly: Antiviral assay, HIV-induced cytopathic effect in CEM cells (tetrazolium/formazan viability readout). It is filed as cell-based. To be noted: Human immunodeficiency virus 1, CCRF-CEM; for IC90: read-out: IC₉₀. On the procedure:
as §2
The IC₅₀ value; defined as that concentration of drug inhibited the HIV induced CPE 50% was 24 nanamolar for the AZT prodrug. […] When the prodrug was added to the cell cultures 8 hours prior to infecting with HIV the IC₅₀ for the prodrug was 5 nanamolar. The IC9₉₀ for the prodrug was 10 nanamolar. The IC₅₀ for AZT under the same conditions was also 5 nanamolar. The IC₉₀ for AZT was 10 nanamolar. The data is summarized in the graph below for an experiment in which the prodrug or AZT were added 8 hours prior to the time of infection with the HIV. [formula] The graph below summarizes the results of an experiment in which the antiviral activity of the AZT prodrug was added 8 hours prior to infection or at the time of infection. [formula]

Data set [3] in a line: Acute toxicity in mice, intraperitoneal. Type of data set: in vivo. To be noted: IP.
Data set [4] concerns the target T2, acetylcholinesterase (Electrophorus electricus, UniProt O42275).
T2 construct: tested for anticholinesterase acitivity in chicken brain homogenate and electric eel extract; from tissue
Put plainly: Acetylcholinesterase activity inhibition assay, electric eel extract. It is filed as biochemical. Conditions: at 10⁻⁵ M. The procedure: as §1

The target in data set [5] is HIV reverse transcriptase (Human immunodeficiency virus type 1 group M subtype B, UniProt P04585). Conditions: read-out: concentration at which HIV reverse transcriptase is inhibited by 50%; cited from earlier work.
The conditions of data set [6]: cited from earlier work.
Setting [7] is: added 8 hours prior to infecting with HIV, read-out: IC₅₀.
Setting [8] is: added 8 hours prior to infecting with HIV.

Molecules are shown by their SMILES. pIC50: −log10 of the molar value. Read-outs that look alike come from different tables or passages of the source.

T2 sequence (O42275 24-633): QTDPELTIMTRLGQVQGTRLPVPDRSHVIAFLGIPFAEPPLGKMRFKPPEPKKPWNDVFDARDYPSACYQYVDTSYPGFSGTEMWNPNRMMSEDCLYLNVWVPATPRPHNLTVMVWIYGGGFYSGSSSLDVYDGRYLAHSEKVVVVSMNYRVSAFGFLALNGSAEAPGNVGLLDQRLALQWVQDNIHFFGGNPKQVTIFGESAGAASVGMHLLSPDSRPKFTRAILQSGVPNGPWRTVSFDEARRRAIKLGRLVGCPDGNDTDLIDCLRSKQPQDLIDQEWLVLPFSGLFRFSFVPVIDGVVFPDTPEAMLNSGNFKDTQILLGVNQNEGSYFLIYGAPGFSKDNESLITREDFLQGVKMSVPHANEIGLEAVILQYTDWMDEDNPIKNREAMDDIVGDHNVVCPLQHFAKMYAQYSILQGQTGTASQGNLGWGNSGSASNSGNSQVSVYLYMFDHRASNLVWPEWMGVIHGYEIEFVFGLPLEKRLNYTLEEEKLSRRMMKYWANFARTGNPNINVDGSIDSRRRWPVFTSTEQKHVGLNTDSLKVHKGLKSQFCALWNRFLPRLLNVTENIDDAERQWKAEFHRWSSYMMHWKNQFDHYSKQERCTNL

With `CCOC(=O)CC(OP(=O)(OC[C@H]1O[C@@H](n2cc(C)c(=O)[nH]c2=O)C[C@@H]1N=[N+]=[N-])OC(CC(=O)OCC)c1ccc(OC(C)=O)cc1)c1ccc(OC(C)=O)cc1` (stereo partly drawn) [AZT prodrug], the “inhibition of acetylcholinesterase activity” value against acetylcholinesterase [1] and at acetylcholinesterase [4] was “No inhibition” throughout. Besides, the CC50 at 144 h in data set [2] came out at 7800 nM. For the same molecule, the pIC50 in the data set on HIV (144 h, 6 days, drug not added before infection, read-out: IC₅₀ (concentration that inhibited the HIV induced CPE 50%)) is 7.62; in the data set with HIV (setting [7]) it was 8.30. For the same molecule, the IC90 in the data set with HIV (setting [8]) was 10 nM. Moreover, the acute toxicity result in data set [3] (mice, 100 mg/kg as an emulsion in 5% Emulphor EL 620) is recorded as “no acute toxicity”; in data set [3] (one mouse, 300 mg/kg, 24 hour period of observation), “without evident acute toxicity”.

Regarding `Cc1cn([C@H]2C[C@H](N=[N+]=[N-])[C@@H](CO)O2)c(=O)[nH]c1=O` [AZT, 3'azido-3'deoxythymidine, reference compound], in the data set on HIV (setting [7]), the pIC50 is 8.30. Besides, the IC90 in the data set with HIV (setting [8]) was 10 nM.

With `O=C(O)P(=O)(O)O` [Phosphonoformate], the pIC50 in data set [5] was above 5.70.

Regarding `COc1cc(C=CC(C)=O)ccc1O` [methyl 4-hydroxy,3-methoxy-styryl ketone], the “oral LD₅₀” value in data set [6] is listed as above 2 grams/kg.

(Values after EP0533833B1, “PHOSPHOROUS PRODUGS” (priority 1990, dated 1991).)
